Results on 2 compounds are retold here after patent US20240417397A1 (priority 2021, published 2024).

The test system of this experiment is Rice blast fungi (Pyricularia oryzae, MAFF101511). Nature of the experiment: microbe, parasite or virus in culture. It is filed as cell-based. The conditions noted are these: 72 h, read-out: Inhibition rate (%) of elongation length of fungal filaments.

What is called inhibition is the relative decrease from the control value, in per cent. As for `COc1n[nH]c(N2CCC(OC)CC2)c1C(F)(F)F` [Example 9, 3-methoxy-5-(4-methoxypiperidin-1-yl)-4-trifluoromethyl-1H-pyrazole], the inhibition at 500 ppm was 88%.
Turning to `COc1n[nH]c(F)c1C(F)(F)F` [Example 2, 3-fluoro-5-methoxy-4-trifluoromethylpyrazole], the inhibition at 500 ppm turned out to be 95%.
